Test results: PMC8901748, “A novel prostaglandin E receptor 4 (EP4) small molecule antagonist induces articular cartilage regeneration” (Cell Discovery, 2022)

Key:
[1] = test system: Mmp3, Mmp13, Col2, p-CREB, p-STAT3, p-p65, IκBα in primary mouse chondrocytes; test: Western blotting in primary articular chondrocytes; format: cell-based
Description: ATDC5 cell line was purchased from Riken BioResource Center (Tsukuba, Japan) and grown in a 1:1 mixture of DMEM/F12 medium (Corning, 10-092-CVR) supplemented with 5% fetal bovine serum (Gibco, 10099, USA) and 1% penicillin-streptomycin solution (Life Technologies). Cells were maintained at 37 °C under 5% CO2. Primary chondrocytes were obtained from knee joint cartilage of newborn mice. Knee joints were dissected from the tibia plateau and femoral condyle articular cartilage of mouse pups and digested in 0.1% collagenase type II (Sigma) overnight at 37 °C and chondrocytes were harvested by centrifugation. Primary chondrocytes were cultured at a density of 5 × 10^3 cells per ml at 37 °C with 5% CO2. DMEM/F12 medium with 10% fetal bovine serum (FBS) and 1% penicillin–streptomycin was used to culture the primary chondrocytes. Chondrogenic differentiation were induced with chondrogenic medium, which contains insulin-transferrin-selenium (ITS) (Sigma, I3146), 10 ng/ml TGF-β3 (PEPROTECH, 100-36E, USA), 100 nM Dexamethasone (Sigma, D4902), 50 μg/ml VC (Sigma), 1 mM sodium pyruvate (Sigma) and 40 μg/ml proline (Sigma), and/or treatment with rmIL-1β (R&D, 401-ML/CF), TNFα (PEPROTECH, 300-01A-50) in DMEM/F12 for indicated days. Western blotting was performed according to standard protocols. Antibodies used were: rabbit anti-Mmp3 (1:1000, HuaBio), rabbit anti-Mmp13 (1:500, abcam, ab39012), rabbit anti-p-CREB (1:2000, Cell Signaling Technology, 87G3), rabbit anti-CREB (1:2000, Cell Signaling Technology, 48H2), mouse anti-GAPDH (1:5000; Sigma-Aldrich, G8795), rabbit anti-Col2 (Abcam, Ab34712), rabbit anti-STAT3 (1:2000; Abcam, ab68153), rabbit anti-p-STAT3 (Y705) (1:2000; Abcam, ab76315), rabbit anti -p65 (1:1000; CST, 3034), rabbit anti-p-p65 (1:1000; CST, 3033), and rabbit anti-IκBα (1:1000; Abways, CY5026).

[2] = test system: primary chondrocytes; test: Chondrocyte micromass differentiation, Alcian blue staining; format: cell-based, mouse; details: chondrogenic media, 7 days
Description: ATDC5 cell line was purchased from Riken BioResource Center (Tsukuba, Japan) and grown in a 1:1 mixture of DMEM/F12 medium (Corning, 10-092-CVR) supplemented with 5% fetal bovine serum (Gibco, 10099, USA) and 1% penicillin-streptomycin solution (Life Technologies). Cells were maintained at 37 °C under 5% CO2. Primary chondrocytes were obtained from knee joint cartilage of newborn mice. Knee joints were dissected from the tibia plateau and femoral condyle articular cartilage of mouse pups and digested in 0.1% collagenase type II (Sigma) overnight at 37 °C and chondrocytes were harvested by centrifugation. Primary chondrocytes were cultured at a density of 5 × 10^3 cells per ml at 37 °C with 5% CO2. DMEM/F12 medium with 10% fetal bovine serum (FBS) and 1% penicillin–streptomycin was used to culture the primary chondrocytes. […]
Micromass cultures were rinsed with PBS, fixed in PFA for 10 min, and then incubated with Alcian blue staining solution (1.0% Alcian blue in 0.1 N HCl) overnight at 4 °C. […] Alcian blue-stained cultures were extracted using 6 M guanidine hydrochloride and absorbance was measured at 620 nm.

[3] = test system: articular cartilage; test: Aging-induced cartilage defect (CD) mouse model; format: in vivo, mice (strain C57/BL/6); details: 19-month-old mice, 30 mg/kg daily by gavage for 3 months
Description: WT male mice (strain C57/BL/6) were raised under identical conditions until 19 months. The vehicle, Celecoxib, and HL-43 were administered to mice at 30 mg/kg daily by gavage from 19 to 22 month, n = 9 for vehicle and HL-43-treated groups, n = 6 for Celecoxib treated group.
Knee joints of mice were fixed for 24 h in 4% paraformaldehyde (wt/vol), dehydrated into 100% ethanol, and decalcified for 1 week in 0.5 M EDTA pH 8.0. Paraffin-embedded tissue was sectioned (7 μm) and stained with Safranin O and Hematoxylin & Eosin (H&E) according to standard procedures. The OARSI histologic scoring of OA in the mouse was used to measure the cartilage and synovial damage of OA[71],[77]. Immunohistochemical staining for Col2a1, ColX, Sox9, p-CREB, and CREB were routinely performed and follow previous description. […] Histomorphometry and quantification were performed using ImageJ software. Quantification of Mmp13, ColX, Sox9 positive regions were quantified as the positive area/total cartilage area per field of view under ×40 objective magnification.

C[C@H](NC(=O)c1c(-c2ccccc2)nnn1CCOc1ccc(F)cc1)c1ccc(C(=O)O)cc1 [HL-43]
Phosphorylation of CREB by Western blotting ([1]; chondrocytes, 2 ng/ml IL-1β, 100 nM PGE2, 1 h): enhanced by HL-43 in a dose-dependent manner | Mmp3/13 expression by Western blotting ([1]; primary articular chondrocytes, 1 ng/ml IL-1β, 24 h): downregulated Mmp3/13 expression in a dose-dependent manner | Phosphorylation of STAT3 ([1]; primary mouse articular chondrocytes, 2 ng/ml IL-1β, 1 h): reduced the phosphorylation of STAT3 | Phosphorylation of p65 and degradation of IκBα ([1]; primary mouse articular chondrocytes, IL-1β, 30 μM HL-43, 1 h): little effects | Col2 expression by Western blotting ([1]; primary mouse chondrocytes, 24 h): dose-dependently induced Col2 expression | Chondrogenesis of primary chondrocytes (Alcian blue) [2]: promoted the chondrogenesis of the primary chondrocytes in a dose-dependent manner | Cartilage integrity and articular cartilage thickness [3]: notably preserved cartilage integrity and had thicker articular cartilage
